Laboratory results: the supplement of paper PMC10627819

Experiments:
B. subtilis 168 [1] = experiment: Bliss interaction score (quartile over a dose matrix) (fitness difference); higher = more antagonism (negative = synergy)
In short: (§1)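 The Bliss score is observed fitness minus expected fitness, where the expected value is the product of single-drug fitness values inferred from combination data. Fitness is OD595 at entry into stationary phase normalised to the plate's robust no-drug mean and capped at 1. Scores are reported as quartiles spanning technical, biological and donor/recipient replicates.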

S. aureus Newman [2] = experiment: as above
In short: as §1

S. pneumoniae D39V [3] = experiment: as above
In short: as §1

S. aureus DSM 20231 [4] = experiment: as above
In short: as §1

B. subtilis 168 [5] = experiment: fitness (endpoint OD595 vs no drug) (fraction); higher = more growth
In short: (§2)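 At 37 °C, bacteria in TSB, LB Lennox or CY were grown in 384-well plates from a starting OD595 of 0.01. OD595 was measured every 30 min for 14 h, with the first reading used as background. Fitness is the optical density at the switch to stationary phase as a fraction of the robust mean of no-drug control wells, capped at 1.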

S. aureus Newman [6] = experiment: as above
In short: as §2

S. pneumoniae D39V [7] = experiment: as above
In short: as §2

S. aureus DSM 20231 [8] = experiment: as above
In short: as §2
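Wherever Bliss interaction score (quartile over a dose matrix) is given: first quartile when negative (synergy) and third quartile when positive (antagonism).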
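Wherever fitness (endpoint OD595 vs no drug) is given: OD595 on entry to stationary phase over no-drug wells; at most 1.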

Cc1onc(-c2ccccc2)c1C(=O)N[C@@H]1C(=O)N2[C@@H]1SC(C)(C)[C@@H]2C(=O)O [Oxacillin] + CC1=C\[C@@H](O)CC(=O)Cc2nc(co2)C(=O)N2CCC=C2C(=O)O[C@H](C(C)C)[C@H](C)/C=C/C(=O)NC\C=C\1 [Virginiamycin M1]
Details | Bliss interaction score
B. subtilis 168 [1] | 0.0548
S. aureus DSM 20231 [4] | -0.0341
S. aureus Newman [2] | 0.0583
S. pneumoniae D39V [3] | 0.114

Details | fitness
B. subtilis 168 [5], first compound 0.002 µg/mL, partner 0.0625 µg/mL | 0.993
B. subtilis 168 [5], first compound 0.002 µg/mL, partner 0.125 µg/mL | 0.954
B. subtilis 168 [5], first compound 0.002 µg/mL, partner 0.25 µg/mL | 0.977
B. subtilis 168 [5], first compound 0.004 µg/mL, partner 0.0625 µg/mL | 0.98
B. subtilis 168 [5], first compound 0.004 µg/mL, partner 0.125 µg/mL | 0.941
B. subtilis 168 [5], first compound 0.004 µg/mL, partner 0.25 µg/mL | 0.973
B. subtilis 168 [5], first compound 0.008 µg/mL, partner 0.0625 µg/mL | 0.962
B. subtilis 168 [5], first compound 0.008 µg/mL, partner 0.125 µg/mL | 0.905
B. subtilis 168 [5], first compound 0.008 µg/mL, partner 0.25 µg/mL | 0.962
S. aureus DSM 20231 [8], first compound 0.0156 µg/mL, partner 0.0625 µg/mL | 0.803
S. aureus DSM 20231 [8], first compound 0.0156 µg/mL, partner 0.125 µg/mL | 0.808
S. aureus DSM 20231 [8], first compound 0.0156 µg/mL, partner 0.25 µg/mL | 0.775
S. aureus DSM 20231 [8], first compound 0.0312 µg/mL, partner 0.0625 µg/mL | 0.61
S. aureus DSM 20231 [8], first compound 0.0312 µg/mL, partner 0.125 µg/mL | 0.686
S. aureus DSM 20231 [8], first compound 0.0312 µg/mL, partner 0.25 µg/mL | 0.628
S. aureus DSM 20231 [8], first compound 0.0625 µg/mL, partner 0.0625 µg/mL | 0.492
S. aureus DSM 20231 [8], first compound 0.0625 µg/mL, partner 0.125 µg/mL | 0.514
S. aureus DSM 20231 [8], first compound 0.0625 µg/mL, partner 0.25 µg/mL | 0.545
S. aureus Newman [6], first compound 0.0156 µg/mL, partner 0.0625 µg/mL | 0.755
S. aureus Newman [6], first compound 0.0156 µg/mL, partner 0.125 µg/mL | 0.761
S. aureus Newman [6], first compound 0.0156 µg/mL, partner 0.25 µg/mL | 0.763
S. aureus Newman [6], first compound 0.0312 µg/mL, partner 0.0625 µg/mL | 0.71
S. aureus Newman [6], first compound 0.0312 µg/mL, partner 0.125 µg/mL | 0.709
S. aureus Newman [6], first compound 0.0312 µg/mL, partner 0.25 µg/mL | 0.694
S. aureus Newman [6], first compound 0.0625 µg/mL, partner 0.0625 µg/mL | 0.622
S. aureus Newman [6], first compound 0.0625 µg/mL, partner 0.125 µg/mL | 0.623
S. aureus Newman [6], first compound 0.0625 µg/mL, partner 0.25 µg/mL | 0.643
S. pneumoniae D39V [7], first compound 0.01 µg/mL, partner 0.5 µg/mL | 0.986
S. pneumoniae D39V [7], first compound 0.01 µg/mL, partner 1 µg/mL | 0.98
S. pneumoniae D39V [7], first compound 0.01 µg/mL, partner 2 µg/mL | 0.961
S. pneumoniae D39V [7], first compound 0.02 µg/mL, partner 0.5 µg/mL | 0.964
S. pneumoniae D39V [7], first compound 0.02 µg/mL, partner 1 µg/mL | 0.965
S. pneumoniae D39V [7], first compound 0.02 µg/mL, partner 2 µg/mL | 0.913
S. pneumoniae D39V [7], first compound 0.04 µg/mL, partner 0.5 µg/mL | 0.539
S. pneumoniae D39V [7], first compound 0.04 µg/mL, partner 1 µg/mL | 0.568

one replicate
Details | fitness
B. subtilis 168 [5], first compound 0.075 µg/mL, partner 0.0625 µg/mL | 0.461
B. subtilis 168 [5], first compound 0.075 µg/mL, partner 0.125 µg/mL | 0.639
B. subtilis 168 [5], first compound 0.075 µg/mL, partner 0.25 µg/mL | 0.53
B. subtilis 168 [5], first compound 0.15 µg/mL, partner 0.0625 µg/mL | 0.0434
B. subtilis 168 [5], first compound 0.15 µg/mL, partner 0.125 µg/mL | 0.0511
B. subtilis 168 [5], first compound 0.15 µg/mL, partner 0.25 µg/mL | 0.0511
B. subtilis 168 [5], first compound 0.3 µg/mL, partner 0.0625 µg/mL | 0.04
B. subtilis 168 [5], first compound 0.3 µg/mL, partner 0.125 µg/mL | 0.0604
B. subtilis 168 [5], first compound 0.3 µg/mL, partner 0.25 µg/mL | 0.0635
S. aureus DSM 20231 [8], first compound 0.0156 µg/mL, partner 0.5 µg/mL | 0.835
S. aureus DSM 20231 [8], first compound 0.0156 µg/mL, partner 1 µg/mL | 0.903
S. aureus DSM 20231 [8], first compound 0.0312 µg/mL, partner 0.5 µg/mL | 0.719
S. aureus DSM 20231 [8], first compound 0.0312 µg/mL, partner 1 µg/mL | 0.746
S. aureus DSM 20231 [8], first compound 0.0625 µg/mL, partner 0.5 µg/mL | 0.517
S. aureus DSM 20231 [8], first compound 0.0625 µg/mL, partner 1 µg/mL | 0.64
S. aureus Newman [6], first compound 0.0156 µg/mL, partner 0.5 µg/mL | 0.815
S. aureus Newman [6], first compound 0.0156 µg/mL, partner 1 µg/mL | 0.882
S. aureus Newman [6], first compound 0.0156 µg/mL, partner 2 µg/mL | 0.843
S. aureus Newman [6], first compound 0.0312 µg/mL, partner 0.5 µg/mL | 0.752
S. aureus Newman [6], first compound 0.0312 µg/mL, partner 1 µg/mL | 0.78
S. aureus Newman [6], first compound 0.0312 µg/mL, partner 2 µg/mL | 0.723
S. aureus Newman [6], first compound 0.0625 µg/mL, partner 0.5 µg/mL | 0.597
S. aureus Newman [6], first compound 0.0625 µg/mL, partner 1 µg/mL | 0.671
S. aureus Newman [6], first compound 0.0625 µg/mL, partner 2 µg/mL | 0.676
S. pneumoniae D39V [7], first compound 0.01 µg/mL, partner 0.15 µg/mL | ≥ 1
S. pneumoniae D39V [7], first compound 0.01 µg/mL, partner 0.3 µg/mL | ≥ 1
S. pneumoniae D39V [7], first compound 0.02 µg/mL, partner 0.15 µg/mL | ≥ 1
S. pneumoniae D39V [7], first compound 0.02 µg/mL, partner 0.3 µg/mL | ≥ 1
S. pneumoniae D39V [7], first compound 0.04 µg/mL, partner 0.15 µg/mL | 0.994
S. pneumoniae D39V [7], first compound 0.04 µg/mL, partner 0.3 µg/mL | 0.989
